14 compounds from patent publication US10759751B2, “Substituted spirocyclohexanes as muscarinic M1 receptor and/or M4 receptor agonists” (Heptares Therapeutics Limited, priority 2016, dated 2020) can be followed below.

In general, Emax refers to the greatest response seen or fitted, relative to the assay's reference.

Type in all cases: cell-based
In assay [1] the target is T1, human muscarinic M2 receptor (Homo sapiens, UniProt P08172).
T1 sequence (P08172 1-466): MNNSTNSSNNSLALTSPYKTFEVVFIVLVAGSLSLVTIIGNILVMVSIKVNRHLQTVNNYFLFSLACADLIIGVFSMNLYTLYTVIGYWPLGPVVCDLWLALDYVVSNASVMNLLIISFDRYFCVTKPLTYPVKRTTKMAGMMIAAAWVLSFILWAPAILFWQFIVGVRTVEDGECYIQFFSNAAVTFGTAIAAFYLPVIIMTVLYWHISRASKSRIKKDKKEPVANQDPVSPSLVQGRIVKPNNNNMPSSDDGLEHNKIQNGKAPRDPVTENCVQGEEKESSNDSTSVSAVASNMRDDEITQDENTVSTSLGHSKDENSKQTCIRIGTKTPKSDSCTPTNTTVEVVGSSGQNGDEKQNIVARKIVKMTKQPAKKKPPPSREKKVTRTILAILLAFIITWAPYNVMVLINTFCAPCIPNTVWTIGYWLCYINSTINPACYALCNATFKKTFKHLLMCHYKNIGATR
Put plainly: Alphascreen Surefire phospho-ERK1/2 functional assay, M2. The note with it: for EC50: CHO cells stably expressing human M2, phospho-ERK1/2, read-out: pEC50 M2 (converted); for Emax: CHO, read-out: M2 % Emax cf. ACh. As to the method: (§1) Functional assays were performed using the Alphascreen Surefire phospho-ERK1/2 assay (Crouch & Osmond, Comb. Chem. High Throughput Screen, 2008). ERK1/2 phosphorylation is a downstream consequence of both Gq/11 and Gi/o protein coupled receptor activation, making it highly suitable for the assessment of M1, M3 (Gq/11 coupled) and M2, M4 receptors (Gi/o coupled), rather than using different assay formats for different receptor subtypes. CHO cells stably expressing the human muscarinic M1, M2, M3 or M4 receptor were plated (25K/well) onto 96-well tissue culture plates in MEM-alpha+10% dialysed FBS. Once adhered, cells were serum-starved overnight. Agonist stimulation was performed by the addition of 5 μL agonist to the cells for 5 min (37° C.). Media was removed and 50 μL of lysis buffer added. After 15 min, a 4 μL sample was transferred to 384-well plate and 7 μL of detection mixture added. Plates were incubated for 2 h with gentle agitation in the dark and then read on a PHERAstar plate reader.
(§2) pEC50 and Emax figures were calculated from the resulting data for each receptor subtype.
On the technique in general: Bead proximity is the source of the signal in Alpha formats.

Assay [2] concerns the target T2, human muscarinic M3 receptor (Homo sapiens, UniProt P20309).
T2 construct: expressed in transfected cells
In words: Alphascreen Surefire phospho-ERK1/2 functional assay, M3. The note with it: for EC50: CHO cells stably expressing human M3, phospho-ERK1/2, read-out: pEC50 M3 (converted); for Emax: CHO, read-out: M3 % Emax cf. ACh. As to the method:
as §1, §2

Assay [3] concerns the target T3, human muscarinic M1 receptor (Homo sapiens, UniProt P11229).
T3 sequence (P11229 1-460): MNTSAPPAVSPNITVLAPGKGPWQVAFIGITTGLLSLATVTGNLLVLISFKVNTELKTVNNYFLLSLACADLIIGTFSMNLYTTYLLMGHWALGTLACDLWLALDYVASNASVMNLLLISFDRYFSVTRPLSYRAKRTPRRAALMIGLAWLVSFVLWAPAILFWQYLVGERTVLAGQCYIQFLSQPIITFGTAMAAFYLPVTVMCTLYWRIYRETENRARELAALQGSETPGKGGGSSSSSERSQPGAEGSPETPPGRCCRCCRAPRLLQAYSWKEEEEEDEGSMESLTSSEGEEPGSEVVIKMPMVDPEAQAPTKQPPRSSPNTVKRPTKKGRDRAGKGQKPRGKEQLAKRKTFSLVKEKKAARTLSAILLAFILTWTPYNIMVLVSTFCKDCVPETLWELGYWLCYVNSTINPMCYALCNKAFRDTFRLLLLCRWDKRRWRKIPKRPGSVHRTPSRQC
Put plainly: Alphascreen Surefire phospho-ERK1/2 functional assay, M1. The note with it: for EC50: CHO cells stably expressing human M1, phospho-ERK1/2, read-out: pEC50 M1 (converted); for Emax: CHO. An outline of the steps:
(§3)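 The assay used ERK1/2 phosphorylation as a common downstream read-out of Gq/11 and Gi/o receptor activation. CHO cells expressing each human receptor were exposed to agonist for five minutes at 37 °C after overnight serum starvation. Potency (pEC50) and maximal effect (Emax) came from the AlphaScreen signal.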

The target in assay [4] is T4, human muscarinic M4 receptor (Homo sapiens, UniProt P08173).
T4 construct: expressed in transfected cells
T4 sequence (P08173 1-479): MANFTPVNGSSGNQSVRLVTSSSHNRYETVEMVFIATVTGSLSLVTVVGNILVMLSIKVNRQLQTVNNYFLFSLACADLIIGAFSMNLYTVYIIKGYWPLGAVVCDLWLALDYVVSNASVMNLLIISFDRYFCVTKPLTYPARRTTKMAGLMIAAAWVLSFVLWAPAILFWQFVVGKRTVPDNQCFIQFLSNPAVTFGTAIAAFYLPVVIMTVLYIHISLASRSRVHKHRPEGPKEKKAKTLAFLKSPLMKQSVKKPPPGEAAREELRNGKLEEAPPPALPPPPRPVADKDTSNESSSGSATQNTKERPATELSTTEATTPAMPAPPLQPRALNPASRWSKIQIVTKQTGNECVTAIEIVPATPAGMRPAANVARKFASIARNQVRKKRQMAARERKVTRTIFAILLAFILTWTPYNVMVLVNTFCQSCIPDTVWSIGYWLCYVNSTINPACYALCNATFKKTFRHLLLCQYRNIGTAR
In words: Alphascreen Surefire phospho-ERK1/2 functional assay, M4. The note with it: for EC50: CHO cells stably expressing human M4, phospho-ERK1/2, read-out: pEC50 M4 (converted); for Emax: CHO. A digest of the protocol:
as §3

Setting [5] is: read-out: M1 % Emax cf. ACh, CHO cells stably expressing human M1, Emax relative to ACh.
The mark [6] stands for this setting: read-out: M4 % Emax cf. ACh, CHO cells stably expressing human M4, Emax relative to ACh.

Read-outs that look alike come from different tables or passages of the source.

T2 sequence (P20309 whole entry): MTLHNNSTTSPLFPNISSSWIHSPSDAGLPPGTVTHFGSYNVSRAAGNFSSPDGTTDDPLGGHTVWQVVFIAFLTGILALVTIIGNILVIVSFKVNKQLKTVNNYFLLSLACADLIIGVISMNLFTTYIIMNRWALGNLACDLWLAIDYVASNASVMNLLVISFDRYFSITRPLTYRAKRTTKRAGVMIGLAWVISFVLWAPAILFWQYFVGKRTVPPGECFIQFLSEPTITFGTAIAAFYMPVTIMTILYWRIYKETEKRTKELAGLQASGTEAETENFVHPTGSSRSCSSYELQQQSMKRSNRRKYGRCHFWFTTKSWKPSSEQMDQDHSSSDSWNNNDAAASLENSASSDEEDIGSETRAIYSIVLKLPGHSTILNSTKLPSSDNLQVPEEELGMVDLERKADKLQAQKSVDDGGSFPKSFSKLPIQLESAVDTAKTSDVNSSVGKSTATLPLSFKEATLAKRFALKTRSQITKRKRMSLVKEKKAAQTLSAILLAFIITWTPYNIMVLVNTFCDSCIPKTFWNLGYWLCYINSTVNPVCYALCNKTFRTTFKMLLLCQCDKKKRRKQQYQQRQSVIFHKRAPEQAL

With `COC(=O)N1CCCN(C2CCC(C#N)(c3ccccc3)CC2)CC1` (mixture of isomers) [3-28 mixture of isomers], the EC50 in assay [1] was above 20 µM; in assay [2] it was above 20 µM; in assay [3] it was 0.776 µM; in assay [4], 0.245 µM. Further, the Emax was determined as 15% in assay [1], 7% in assay [2], 116% in assay [3] (setting [5]) and 91% in assay [4] (setting [6]).
Turning to `N#CC1(c2ccccc2)CCC(N2CCCN(C(=O)OCCF)CC2)CC1` (mixture of isomers) [3-29 mixture of isomers], the EC50 in assay [1] is above 20 µM; in assay [2], above 20 µM; in assay [3], 0.537 µM; in assay [4] it was 0.2 µM. Further, the maximal effect (Emax) in assay [1] turned out to be 3%; in assay [2] it was 3%; in assay [3] (setting [5]), 75%; in assay [4] (setting [6]), 68%.
With `CCOC(=O)N[C@H]1CCN(C2CCC(C#N)(c3ccccc3)CC2)C1` (single isomer, unassigned) [1-1 Isomer 2], the EC50 in assay [1] was above 20 µM; in assay [2], above 20 µM; in assay [3], 0.0513 µM; in assay [4] it was above 20 µM. Besides, the maximum response (Emax) in assay [1] stood at 3%; in assay [2], 18%; in assay [3] (setting [5]) it was 117%; in assay [4] (setting [6]), 18%.
For the compound `CCOC(=O)N[C@@H]1CCN(C2CCC(C#N)(c3ccccc3)CC2)C1` (single isomer, unassigned) [1-2 Isomer 2], the EC50 is above 20 µM in assay [1], above 20 µM in assay [2], 0.209 µM in assay [3] and 0.741 µM in assay [4]. Also, the Emax turned out to be 23% in assay [1], 1% in assay [2], 102% in assay [3] (setting [5]) and 52% in assay [4] (setting [6]).
For `CCOC(=O)N[C@H]1CCN(C2CCC(C#N)(c3cccc(F)c3)CC2)C1` (single isomer, unassigned) [1-3 Isomer 2], the EC50 in assay [1] was above 20 µM; in assay [2], above 20 µM; in assay [3], 0.0309 µM; in assay [4] it was above 20 µM. The Emax in assay [1] came out at 0%; in assay [2], 1%; in assay [3] (setting [5]), 119%; in assay [4] (setting [6]), 13%.
In the case of `CCOC(=O)N[C@H]1CCN(C2CCC(C#N)(c3ccc(F)cc3)CC2)C1` (single isomer, unassigned) [1-4 Isomer 2], the EC50 was above 20 µM in assay [1], above 20 µM in assay [2], 0.0355 µM in assay [3] and above 20 µM in assay [4]. Besides, the Emax in assay [1] worked out at 3%; in assay [2], 8%; in assay [3] (setting [5]), 98%; in assay [4] (setting [6]), 7%.
In the case of `CCOC(=O)N[C@@H]1CCN(C2CCC(C#N)(c3ccccc3F)CC2)C1` (single isomer, unassigned) [1-5 Isomer 2], the EC50 was above 20 µM in assay [1], above 20 µM in assay [2], 0.115 µM in assay [3] and above 20 µM in assay [4]. In addition, the maximal response (Emax) in assay [1] is 5%; in assay [2] it was 33%; in assay [3] (setting [5]), 125%; in assay [4] (setting [6]), 46%.
For `CCOC(=O)N[C@H]1CCN(C2CCC(C#N)(c3cccc(C)c3)CC2)C1` (single isomer, unassigned) [1-9 Isomer 2], the EC50 in assay [1] is above 20 µM; in assay [2] it was above 20 µM; in assay [3] it was 0.0275 µM; in assay [4], above 20 µM. Further, the maximal response (Emax) stood at 6% in assay [1], 2% in assay [2], 99% in assay [3] (setting [5]) and 12% in assay [4] (setting [6]).
As to `CCOC(=O)N[C@H]1CCN(C2CCC(C#N)(c3cccc(Cl)c3)CC2)C1` (single isomer, unassigned) [1-10 Isomer 2], the EC50 in assay [1] was above 20 µM; in assay [2], above 20 µM; in assay [3], 0.0282 µM; in assay [4], above 20 µM. The Emax in assay [1] was found to be 6%; in assay [2] it was 9%; in assay [3] (setting [5]), 106%; in assay [4] (setting [6]), 24%.
In the case of `CCOC(=O)N[C@H]1CCN(C2CCC(C#N)(c3cccc(OC)c3)CC2)C1` (single isomer, unassigned) [1-11 Isomer 2], the EC50 is above 20 µM in assay [1], above 20 µM in assay [2], 0.148 µM in assay [3] and above 20 µM in assay [4]. The Emax in assay [1] was determined as 0%; in assay [2], 1%; in assay [3] (setting [5]), 99%; in assay [4] (setting [6]), 9%.
For the compound `CCOC(=O)N[C@H]1CCN(C2CCC(C#N)(c3ccc(F)cn3)CC2)C1` (single isomer, unassigned) [1-14 Isomer 2], the EC50 was above 20 µM in assay [1], above 20 µM in assay [2], 0.123 µM in assay [3] and above 20 µM in assay [4]. For the same compound, the Emax in assay [1] stood at 2%; in assay [2], 0%; in assay [3] (setting [5]), 89%; in assay [4] (setting [6]), 32%.
Regarding `CCOC(=O)N(C)[C@H]1CCN(C2CCC(C#N)(c3ccccc3)CC2)C1` (single isomer, unassigned) [1-20 Isomer 2], the EC50 in assay [1] is above 20 µM; in assay [2], above 20 µM; in assay [3], 0.148 µM; in assay [4] it was above 20 µM. The maximal effect (Emax) in assay [1] turned out to be 0%; in assay [2], 0%; in assay [3] (read-out: M1 % Emax cf. ACh), 78%; in assay [4] (read-out: M4 % Emax cf. ACh), 19%.
Turning to `CCOC(=O)N(C)[C@@H]1CCN(C2CCC(C#N)(c3ccccc3)CC2)C1` (single isomer, unassigned) [1-21 Isomer 2], the EC50 in assay [1] was above 20 µM; in assay [2], above 20 µM; in assay [3], 0.11 µM; in assay [4], above 20 µM. In addition, the Emax in assay [1] was found to be 1%; in assay [2], 5%; in assay [3] (read-out: M1 % Emax cf. ACh) it was 64%; in assay [4] (read-out: M4 % Emax cf. ACh), 15%.
Consider `CCOC(=O)N[C@H]1CCN(C2CCC3(CC2)C(=O)Nc2ccccc23)C1` (single isomer, unassigned) [2-1 isomer 1], for which the EC50 was above 20 µM in assay [1], above 20 µM in assay [2], 0.0741 µM in assay [3] and above 20 µM in assay [4]. The Emax in assay [1] was found to be 2%; in assay [2] it was 4%; in assay [3] (setting [5]), 74%; in assay [4] (setting [6]), 10%.
